The source of these data is patent US20120059052A1, “PRENYLFLAVONOID FORMULATIONS” (BIOACTIVES, INC., priority 2005, published 2012).

One data set concerns the target T1, HMG-CoA reductase (Homo sapiens, UniProt P04035).
T1 construct: from tissue; host or cells: liver microsomes
T1 sequence (P04035 1-888): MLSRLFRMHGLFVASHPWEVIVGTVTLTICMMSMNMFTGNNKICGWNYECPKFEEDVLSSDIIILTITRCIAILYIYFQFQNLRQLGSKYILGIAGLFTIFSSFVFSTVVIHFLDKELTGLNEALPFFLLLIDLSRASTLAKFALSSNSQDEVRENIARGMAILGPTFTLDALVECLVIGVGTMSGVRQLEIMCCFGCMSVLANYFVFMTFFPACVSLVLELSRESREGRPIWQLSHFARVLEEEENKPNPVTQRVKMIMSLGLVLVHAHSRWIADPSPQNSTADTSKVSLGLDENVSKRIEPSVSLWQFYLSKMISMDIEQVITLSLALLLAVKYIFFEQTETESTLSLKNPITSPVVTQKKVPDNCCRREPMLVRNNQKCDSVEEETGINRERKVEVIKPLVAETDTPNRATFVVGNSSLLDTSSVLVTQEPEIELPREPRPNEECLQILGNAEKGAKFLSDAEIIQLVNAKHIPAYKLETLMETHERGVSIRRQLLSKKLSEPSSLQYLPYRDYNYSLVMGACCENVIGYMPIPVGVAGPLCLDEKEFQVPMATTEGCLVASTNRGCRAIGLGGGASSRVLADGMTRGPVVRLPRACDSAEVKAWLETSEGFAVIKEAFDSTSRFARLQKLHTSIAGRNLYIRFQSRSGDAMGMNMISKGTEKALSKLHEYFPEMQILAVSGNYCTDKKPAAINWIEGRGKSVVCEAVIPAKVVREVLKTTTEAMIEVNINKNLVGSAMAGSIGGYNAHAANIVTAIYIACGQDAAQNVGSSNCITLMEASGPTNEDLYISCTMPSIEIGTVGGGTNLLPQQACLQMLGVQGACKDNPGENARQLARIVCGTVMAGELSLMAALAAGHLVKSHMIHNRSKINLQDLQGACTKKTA
Description: HMG-CoA reductase assay in isolated liver microsomes. Type of data set: biochemical. Particulars: 1 μM to 100 μM, isolated liver microsomes. As to the method: HMG-CoA reductase assays were performed in which increasing concentrations of xanthohumol (1 μM to 100 μM) were added to isolated liver microsomes. Xanthohumol had no effect on HMG-CoA reductase activity. As a positive control, atorvastatin (10 nM and 1 μM) was tested in the same assay, which inhibited reductase activity by 58% and 87% respectively. The protocol followed was as published in Telford et al. ATVB 2002; 22: 1884-1891.

Another data set deals with HepG2 cells. Briefly: Incorporation of 14C-acetic acid into cholesterol in HepG2 cells. Type of data set: cell-based. As to the method:
The incorporation of ^14C-acetic acid into cholesterol was examined in HepG2 cells. […] The IC50 was approximately 20 μM. In the same HepG2 cell assay system, atorvastatin (10 nM and 1 μM) inhibited acetate incorporation into cholesterol by 20% and 80% respectively.

A further data set has as its system Caco-2 cell monolayers. Briefly: Permeability across Caco-2 cell monolayers. Type of data set: in vitro ADME. As to the method: Percent Recovery=100×((Vr×Cr^final)+(Vd×Cd^final))/(Vd×C0)
• dCr/dt is the slope of the cumulative concentration in the receiver compartment versus time in μMs^−1. • Vr is the volume of the receiver compartment in cm^3. • Vd is the volume of the donor compartment in cm^3. • A is the area of the cell-free insert (1.13 cm^2 for 12-well Transwell). • Cr^final is the cumulative receiver concentration in μM at the end of the incubation period. • Cd^final is the concentration of the donor in μM at the end of the incubation period. • C0 is the initial concentration of the dosing solution in μM.
Each determination was performed in duplicate.
In general terms: Caco-2 cells form a polarised layer with tight junctions and transporters.

A further data set deals with T2, inducible COX-2 (Homo sapiens, UniProt P35354).
T2 sequence (P35354 18-604): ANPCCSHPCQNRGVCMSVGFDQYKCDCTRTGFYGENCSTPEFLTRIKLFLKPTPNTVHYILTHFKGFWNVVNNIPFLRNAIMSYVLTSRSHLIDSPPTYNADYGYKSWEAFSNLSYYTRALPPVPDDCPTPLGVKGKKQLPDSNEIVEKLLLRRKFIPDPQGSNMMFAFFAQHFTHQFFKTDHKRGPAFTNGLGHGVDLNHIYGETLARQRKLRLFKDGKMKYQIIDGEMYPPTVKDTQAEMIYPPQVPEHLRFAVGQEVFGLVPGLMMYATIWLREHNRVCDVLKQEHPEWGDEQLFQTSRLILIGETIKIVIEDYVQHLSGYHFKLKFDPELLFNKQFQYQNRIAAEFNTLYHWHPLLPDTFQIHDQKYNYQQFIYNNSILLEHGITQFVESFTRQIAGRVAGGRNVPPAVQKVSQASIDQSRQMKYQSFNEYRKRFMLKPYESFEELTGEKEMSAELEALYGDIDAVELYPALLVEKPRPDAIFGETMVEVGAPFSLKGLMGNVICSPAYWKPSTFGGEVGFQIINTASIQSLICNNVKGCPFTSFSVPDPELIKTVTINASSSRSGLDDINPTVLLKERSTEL
Particulars: read-out: IC50, inhibition of COX-2; cited from earlier work.

The conditions of data set [1]: cited from earlier work.
For data set [2] the following is noted: oral doses, animal; cited from earlier work.
Where [3] appears, read: human, Caco-2, 120 min, 2 μM, pH 7.4.

Each structure is given as a SMILES string.

One may read the IC50 as the midpoint of a concentration-inhibition curve.

On to `COc1cc(O)c(CC=C(C)C)c(O)c1C(=O)/C=C/c1ccc(O)cc1` [Xanthohumol, xanthohumol], for which the “Effect on HMG-CoA reductase activity” value on HMG-CoA reductase is recorded as “no effect”. For the same compound, the Cholesterol synthesis inhibition result with HepG2 cells (0.5 μM to 100 μM) is reported as “inhibited in a dose-responsive manner”. Besides, the IC50 in the data set with HepG2 cells (Homo sapiens, read-out: IC50, cholesterol synthesis) was ~20 µM. Further, the “Effect on incorporation of 14C-acetic acid into cholesterol” value in the data set with HepG2 cells (concentrations below 500 nM) was “No affect”. In the data set with Caco-2 cell monolayers (Caco-2), the “Significant Efflux” value was “No”. In the data set on Caco-2 cell monolayers (setting [3]), the “Papp, Average” value was 1.77 10^−6 cm/s and the “Papp, Rep. 1” value is recorded as 0.94 10^−6 cm/s. For the same compound, at inducible COX-2, the 50% inhibitory concentration (IC50) is 42 µM. The Solubility in water entry in data set [1] is recorded as “virtually insoluble”. Further, the Bioavailability entry in data set [2] is “very low bioavailability”.
